Tests used:
AMBEL Ragweed, Common [1] = experiment: Preemergence herbicidal evaluation, AMBEL; assay type: in vivo, Ambrosia artemisifolia, L.; details: preemergence
How it was run: (§1)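 Compound applied preemergence as an aqueous acetone spray onto freshly planted cups, dose equivalent approx. 0.013 to 0.800 kg/ha. Evaluation by rating at weeks 4–5.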

ECHOG Barnyardgrass [2] = experiment: Postemergence herbicidal evaluation, ECHOG; assay type: in vivo, Echinochloa crus-galli, (L.) Beau; details: postemergence spray, rated about two-three weeks after treatment
How it was run: (§2)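 For this test, compound in an 80/20 acetone/water vehicle with 1.0% seed oil was sprayed over two-week-old seedlings at about 0.006 to 0.400 kg per hectare. Injury was assessed visually two to three weeks on.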

[3] = tested on: CHEAL Lambsquarters, Common; experiment: Postemergence herbicidal evaluation, CHEAL; assay type: in vivo, Chenopodium album, L.; details: postemergence spray, rated about two-three weeks after treatment
How it was run: as §2

ECHOG Barnyardgrass [4] = experiment: Preemergence herbicidal evaluation, ECHOG; assay type: in vivo, Echinochloa crus-galli, (L.) Beau; details: preemergence
How it was run: as §1

SETVI Foxtail, Green [5] = experiment: Postemergence herbicidal evaluation, SETVI; assay type: in vivo, Setaria viridis, (L.) Beau; details: postemergence spray, rated about two-three weeks after treatment
How it was run: as §2

GLXMAW Soybean, Williams [6] = experiment: Preemergence herbicidal evaluation, GLXMAW; assay type: in vivo, Glycine max, (L.) Merr. cv Williams; details: preemergence
How it was run: as §1

ORYSAT Rice, Tebonnet [7] = experiment: Postemergence herbicidal evaluation, ORYSAT; assay type: in vivo, Oryza sativa, (L.); details: postemergence spray, rated about two-three weeks after treatment
How it was run: as §2

ABUTH Velvetleaf [8] = experiment: Postemergence herbicidal evaluation, ABUTH; assay type: in vivo, Abutilon theophrasti, Medic.; details: postemergence spray, rated about two-three weeks after treatment
How it was run: as §2

[9] = tested on: TRZAWR Wheat, Winter, cv Riband; experiment: Postemergence herbicidal evaluation, TRZAWR; assay type: in vivo, Triticum aestivum; details: postemergence spray, rated about two-three weeks after treatment
How it was run: as §2

CASOB Sicklepod [10] = experiment: Postemergence herbicidal evaluation, CASOB; assay type: in vivo, Cassia obtusifolia, L.; details: postemergence spray, rated about two-three weeks after treatment
How it was run: as §2

AMBEL Ragweed, Common [11] = experiment: Postemergence herbicidal evaluation, AMBEL; assay type: in vivo, Ambrosia artemisifolia, L.; details: postemergence spray, rated about two-three weeks after treatment
How it was run: as §2

ZEAMX Corn, Field [12] = experiment: Preemergence herbicidal evaluation, ZEAMX; assay type: in vivo, Zea mays, L. (Sammel-Bezeichnung); details: preemergence
How it was run: as §1

[13] = tested on: TRZAWR Wheat, Winter, cv Riband; experiment: Preemergence herbicidal evaluation, TRZAWR; assay type: in vivo, Triticum aestivum; details: preemergence
How it was run: as §1

[14] = tested on: CHEAL Lambsquarters, Common; experiment: Preemergence herbicidal evaluation, CHEAL; assay type: in vivo, Chenopodium album, L.; details: preemergence
How it was run: as §1

ORYSAT Rice, Tebonnet [15] = experiment: Preemergence herbicidal evaluation, ORYSAT; assay type: in vivo, Oryza sativa, (L.); details: preemergence
How it was run: as §1

GALAP Galium [16] = experiment: Preemergence herbicidal evaluation, GALAP; assay type: in vivo, Galium aparine; details: preemergence
How it was run: as §1

[17] = tested on: IPOHE Morningglory, Ivyleaf; experiment: Postemergence herbicidal evaluation, IPOHE; assay type: in vivo, Ipomoea hederacea, (L.) Jacq.; details: postemergence spray, rated about two-three weeks after treatment
How it was run: as §2

[18] = tested on: IPOHE Morningglory, Ivyleaf; experiment: Preemergence herbicidal evaluation, IPOHE; assay type: in vivo, Ipomoea hederacea, (L.) Jacq.; details: preemergence
How it was run: as §1

SETVI Foxtail, Green [19] = experiment: Preemergence herbicidal evaluation, SETVI; assay type: in vivo, Setaria viridis, (L.) Beau; details: preemergence
How it was run: as §1

ZEAMX Corn, Field [20] = experiment: Postemergence herbicidal evaluation, ZEAMX; assay type: in vivo, Zea mays, L. (Sammel-Bezeichnung); details: postemergence spray, rated about two-three weeks after treatment
How it was run: as §2

ABUTH Velvetleaf [21] = experiment: Preemergence herbicidal evaluation, ABUTH; assay type: in vivo, Abutilon theophrasti, Medic.; details: preemergence
How it was run: as §1

CASOB Sicklepod [22] = experiment: Preemergence herbicidal evaluation, CASOB; assay type: in vivo, Cassia obtusifolia, L.; details: preemergence
How it was run: as §1

GALAP Galium [23] = experiment: Postemergence herbicidal evaluation, GALAP; assay type: in vivo, Galium aparine; details: postemergence spray, rated about two-three weeks after treatment
How it was run: as §2

GLXMAW Soybean, Williams [24] = experiment: Postemergence herbicidal evaluation, GLXMAW; assay type: in vivo, Glycine max, (L.) Merr. cv Williams; details: postemergence spray, rated about two-three weeks after treatment
How it was run: as §2

COC(=O)COc1ccc(C)cc1-n1nnc2cc(F)c(-n3c(=O)cc(C(F)(F)F)n(C)c3=O)cc21 [Example 34]
AMBEL herbicidal rating (AMBEL Ragweed, Common [1]; rate 0.016 kg/ha): 1.0
AMBEL herbicidal rating (AMBEL Ragweed, Common [1]; rate 0.032 kg/ha): 5.0
AMBEL herbicidal rating (AMBEL Ragweed, Common [1]; rate 0.062 kg/ha): 6.0
AMBEL herbicidal rating (AMBEL Ragweed, Common [1]; rate 0.125 kg/ha): 8.0
Postemergence herbicidal rating ECHCG (ECHOG Barnyardgrass [2]; 0.008 kg/ha): 7.0
Postemergence herbicidal rating ECHCG (ECHOG Barnyardgrass [2]; 0.016 kg/ha): 9.0
Postemergence herbicidal rating ECHCG (ECHOG Barnyardgrass [2]; 0.032 kg/ha): 9.0
Postemergence herbicidal rating ECHCG (ECHOG Barnyardgrass [2]; 0.062 kg/ha): 9.0
Postemergence herbicidal rating CHEAL ([3]; 0.008 kg/ha): 2.0
Postemergence herbicidal rating CHEAL ([3]; 0.016 kg/ha): 3.0
Postemergence herbicidal rating CHEAL ([3]; 0.032 kg/ha): 3.0
Postemergence herbicidal rating CHEAL ([3]; 0.062 kg/ha): 9.0
ECHCG herbicidal rating (ECHOG Barnyardgrass [4]; rate 0.016 kg/ha): 4.0
ECHCG herbicidal rating (ECHOG Barnyardgrass [4]; rate 0.032 kg/ha): 2.0
ECHCG herbicidal rating (ECHOG Barnyardgrass [4]; rate 0.062 kg/ha): 5.0
ECHCG herbicidal rating (ECHOG Barnyardgrass [4]; rate 0.125 kg/ha): 7.5
Postemergence herbicidal rating SETVI (SETVI Foxtail, Green [5]; 0.008 kg/ha): 9.0
Postemergence herbicidal rating SETVI (SETVI Foxtail, Green [5]; 0.016 kg/ha): 9.0
Postemergence herbicidal rating SETVI (SETVI Foxtail, Green [5]; 0.032 kg/ha): 9.0
Postemergence herbicidal rating SETVI (SETVI Foxtail, Green [5]; 0.062 kg/ha): 9.0
GLXMAW herbicidal rating (GLXMAW Soybean, Williams [6]; rate 0.016 kg/ha): 1.0
GLXMAW herbicidal rating (GLXMAW Soybean, Williams [6]; rate 0.032 kg/ha): 1.0
GLXMAW herbicidal rating (GLXMAW Soybean, Williams [6]; rate 0.062 kg/ha): 1.5
GLXMAW herbicidal rating (GLXMAW Soybean, Williams [6]; rate 0.125 kg/ha): 2.0
Postemergence herbicidal rating ORYSAT (ORYSAT Rice, Tebonnet [7]; 0.008 kg/ha): 3.0
Postemergence herbicidal rating ORYSAT (ORYSAT Rice, Tebonnet [7]; 0.016 kg/ha): 4.0
Postemergence herbicidal rating ORYSAT (ORYSAT Rice, Tebonnet [7]; 0.032 kg/ha): 6.5
Postemergence herbicidal rating ORYSAT (ORYSAT Rice, Tebonnet [7]; 0.062 kg/ha): 7.5
Postemergence herbicidal rating ABUTH (ABUTH Velvetleaf [8]; 0.008 kg/ha): 9.0
Postemergence herbicidal rating ABUTH (ABUTH Velvetleaf [8]; 0.016 kg/ha): 9.0
Postemergence herbicidal rating ABUTH (ABUTH Velvetleaf [8]; 0.032 kg/ha): 9.0
Postemergence herbicidal rating ABUTH (ABUTH Velvetleaf [8]; 0.062 kg/ha): 9.0
Postemergence herbicidal rating TRZAWR ([9]; 0.008 kg/ha): 5.0
Postemergence herbicidal rating TRZAWR ([9]; 0.016 kg/ha): 5.0
Postemergence herbicidal rating TRZAWR ([9]; 0.032 kg/ha): 7.0
Postemergence herbicidal rating TRZAWR ([9]; 0.062 kg/ha): 8.0
Postemergence herbicidal rating CASOB (CASOB Sicklepod [10]; 0.008 kg/ha): 0.0
Postemergence herbicidal rating CASOB (CASOB Sicklepod [10]; 0.016 kg/ha): 0.0
Postemergence herbicidal rating CASOB (CASOB Sicklepod [10]; 0.032 kg/ha): 1.0
Postemergence herbicidal rating CASOB (CASOB Sicklepod [10]; 0.062 kg/ha): 5.0
Postemergence herbicidal rating AMBEL (AMBEL Ragweed, Common [11]; 0.008 kg/ha): 0.0
Postemergence herbicidal rating AMBEL (AMBEL Ragweed, Common [11]; 0.016 kg/ha): 3.0
Postemergence herbicidal rating AMBEL (AMBEL Ragweed, Common [11]; 0.032 kg/ha): 9.0
Postemergence herbicidal rating AMBEL (AMBEL Ragweed, Common [11]; 0.062 kg/ha): 9.0
ZEAMX herbicidal rating (ZEAMX Corn, Field [12]; rate 0.016 kg/ha): 0.0
ZEAMX herbicidal rating (ZEAMX Corn, Field [12]; rate 0.032 kg/ha): 0.5
ZEAMX herbicidal rating (ZEAMX Corn, Field [12]; rate 0.062 kg/ha): 3.5
ZEAMX herbicidal rating (ZEAMX Corn, Field [12]; rate 0.125 kg/ha): 4.0
TRZAWR herbicidal rating ([13]; rate 0.016 kg/ha): 1.0
TRZAWR herbicidal rating ([13]; rate 0.032 kg/ha): 1.0
TRZAWR herbicidal rating ([13]; rate 0.062 kg/ha): 1.0
TRZAWR herbicidal rating ([13]; rate 0.125 kg/ha): 3.0
CHEAL herbicidal rating ([14]; rate 0.016 kg/ha): 9.0
CHEAL herbicidal rating ([14]; rate 0.032 kg/ha): 9.0
CHEAL herbicidal rating ([14]; rate 0.062 kg/ha): 9.0
CHEAL herbicidal rating ([14]; rate 0.125 kg/ha): 9.0
ORYSAT herbicidal rating (ORYSAT Rice, Tebonnet [15]; rate 0.016 kg/ha): 1.0
ORYSAT herbicidal rating (ORYSAT Rice, Tebonnet [15]; rate 0.032 kg/ha): 2.5
ORYSAT herbicidal rating (ORYSAT Rice, Tebonnet [15]; rate 0.062 kg/ha): 3.0
ORYSAT herbicidal rating (ORYSAT Rice, Tebonnet [15]; rate 0.125 kg/ha): 5.0
GALAP herbicidal rating (GALAP Galium [16]; rate 0.016 kg/ha): 0.0
GALAP herbicidal rating (GALAP Galium [16]; rate 0.032 kg/ha): 0.0
GALAP herbicidal rating (GALAP Galium [16]; rate 0.062 kg/ha): 0.0
GALAP herbicidal rating (GALAP Galium [16]; rate 0.125 kg/ha): 7.0
Postemergence herbicidal rating IPOHE ([17]; 0.008 kg/ha): 9.0
Postemergence herbicidal rating IPOHE ([17]; 0.016 kg/ha): 9.0
Postemergence herbicidal rating IPOHE ([17]; 0.032 kg/ha): 9.0
Postemergence herbicidal rating IPOHE ([17]; 0.062 kg/ha): 9.0
IPOHE herbicidal rating ([18]; rate 0.032 kg/ha): 9.0
IPOHE herbicidal rating ([18]; rate 0.062 kg/ha): 5.0
IPOHE herbicidal rating ([18]; rate 0.125 kg/ha): 9.0
SETVI herbicidal rating (SETVI Foxtail, Green [19]; rate 0.016 kg/ha): 7.0
SETVI herbicidal rating (SETVI Foxtail, Green [19]; rate 0.032 kg/ha): 6.0
SETVI herbicidal rating (SETVI Foxtail, Green [19]; rate 0.062 kg/ha): 9.0
SETVI herbicidal rating (SETVI Foxtail, Green [19]; rate 0.125 kg/ha): 9.0
Postemergence herbicidal rating ZEAMX (ZEAMX Corn, Field [20]; 0.008 kg/ha): 7.0
Postemergence herbicidal rating ZEAMX (ZEAMX Corn, Field [20]; 0.016 kg/ha): 7.5
Postemergence herbicidal rating ZEAMX (ZEAMX Corn, Field [20]; 0.032 kg/ha): 8.5
Postemergence herbicidal rating ZEAMX (ZEAMX Corn, Field [20]; 0.062 kg/ha): 9.0
ABUTH herbicidal rating (ABUTH Velvetleaf [21]; rate 0.016 kg/ha): 9.0
ABUTH herbicidal rating (ABUTH Velvetleaf [21]; rate 0.032 kg/ha): 9.0
ABUTH herbicidal rating (ABUTH Velvetleaf [21]; rate 0.062 kg/ha): 9.0
ABUTH herbicidal rating (ABUTH Velvetleaf [21]; rate 0.125 kg/ha): 9.0
CASOB herbicidal rating (CASOB Sicklepod [22]; rate 0.032 kg/ha): 2.0
CASOB herbicidal rating (CASOB Sicklepod [22]; rate 0.062 kg/ha): 2.5
CASOB herbicidal rating (CASOB Sicklepod [22]; rate 0.125 kg/ha): 6.0
Postemergence herbicidal rating GALAP (GALAP Galium [23]; 0.008 kg/ha): 0.0
Postemergence herbicidal rating GALAP (GALAP Galium [23]; 0.016 kg/ha): 3.0
Postemergence herbicidal rating GALAP (GALAP Galium [23]; 0.032 kg/ha): 4.0
Postemergence herbicidal rating GALAP (GALAP Galium [23]; 0.062 kg/ha): 4.0
Postemergence herbicidal rating GLXMAW (GLXMAW Soybean, Williams [24]; 0.008 kg/ha): 5.0
Postemergence herbicidal rating GLXMAW (GLXMAW Soybean, Williams [24]; 0.016 kg/ha): 6.5
Postemergence herbicidal rating GLXMAW (GLXMAW Soybean, Williams [24]; 0.032 kg/ha): 7.0
Postemergence herbicidal rating GLXMAW (GLXMAW Soybean, Williams [24]; 0.062 kg/ha): 7.0

From US20020111274A1, “1-alkyl-3-[1-(substituted phenyl) benzotriazol-6-yl] uracils” (BASF Aktiengesellschaft, priority 2000, published 2002)
